# Reference: patent publication US20190231748A1, “COMPOSITION FOR VAGINA AND ANTIMICROBIAL AGENT COMBINATION FOR USE IN PREPARING COMPOSITION FOR VAGINA” (Shenzhen Eulikan Biotechnology Co., Ltd., priority 2016, published 2019)
# Assays:
# Assay type in all cases: cell-based
# Lactococcus lactis = assay: Gram-stained smear of co-culture gel, Gram-positive cocci (G+c); conditions: for Smear G^+c: cultivated 32 hours
# Source text: (§1) 2.1 Experimental strains: one Lactococcus lactis strain and one Lactobacillus jensenii strain, both were clinical isolates.
# (§2) The pH value was adjusted to 5.0.
# (§3) 2.4 Experimental procedure: the test gel tubes containing different concentrations of antimicrobial agents, as shown in Tables 1 to 6 were inoculated with 100 microliters of Lactobacillus lactis suspension and 100 microliters of Lactobacillus jensenii suspension at the same time. The turbidities of both suspensions were 0.5 MCF. Then the tubes were cultivated at 37° C. and under 5 percent CO2 for 32 hours. Then the changes of the pH values of gels were tested. The gels were smeared, Gram stained, and microscopically examined for the morphology and quantity of bacteria.
# [1] = system: three strains of Staphylococcus aureus isolated from the vaginal secretion of patients with vaginitis; assay: Growth in enrichment broth (turbidity after 24 hours), clinical strains; design: key to growth of Staphylococcus aureus, Bacterial strain 1 / growth of Staphylococcus aureus, Bacterial strain 2 / growth of Staphylococcus aureus, Bacterial strain 3: +: means the growth of bacteria; −: means no growth of bacteria; conditions: for growth of Staphylococcus aureus, Bacterial strain 1 / growth of Staphylococcus aureus, Bacterial strain 2 / growth of Staphylococcus aureus, Bacterial strain 3: enrichment broth, 37° C. for 24 hours, turbidity
# Source text: (§4) a. Experimental strains, three strains of Escherichia coli and three strains of Staphylococcus aureus, which were all isolated from the vaginal secretion of patients with vaginitis.
# (§5) b. Enrichment broth, which contained 1 percent of yeast extract powder, 9 percent of sucrose, 0.025 percent of manganese sulfate (MnSO4.4H2O), 0.058 percent of magnesium sulfate (MgSO4.7H2O), and 0.9 percent of lactic acid, the pH value of the broth was adjusted to 4.8, and the enrichment broth was sterilized for later use;
# (§6) (2). Experimental groups: the requirements for aseptic operation technique were strictly followed to prepare the sterile test tubes:
# (§7) a. sodium benzoate group: each test tube contained 5 milliliters of enrichment broth, and was added in 0.05 percent (weight/volume) sodium benzoate;
# (§8) b. 2-phenylethanol group: each test tube contained 5 milliliters of enrichment broth, and was added in 0.05 percent (weight/volume) of 2-phenylethanol;
# (§9) c. sodium propionate group: each test tube contained 5 milliliters of enrichment broth, and was added in 0.25 percent (weight/volume) of sodium propionate;
# (§10) d. “a group of the combinations of sodium benzoate and sodium propionate”: each test tube contained 5 milliliters of enrichment broth, and was added in 0.05 percent (weight/volume) of sodium benzoate and 0.25 percent (weight/volume) of sodium propionate;
# (§11) e. “a group of the combinations of sodium benzoate and 2-phenylethanol”: each test tube contained 5 milliliters of enrichment broth, and was added in 0.05 percent (weight/volume) of sodium benzoate and 0.05 percent (weight/volume) of 2-phenylethanol;
# (§12) f. “a group of the combinations of sodium propionate and 2-phenylethanol”: each test tube contained 5 milliliters of enrichment broth, and was added in 0.25 percent (weight/volume) of sodium propionate and 0.05 percent (weight/volume) of 2-phenylethanol;
# (§13) g. “a group of the combinations of sodium benzoate, sodium propionate and 2-phenylethanol”: each test tube contained 5 milliliters of enrichment broth, and was added in 0.05 percent (weight/volume) of sodium benzoate, 0.25 percent (weight/volume) of sodium propionate, and 0.05 percent (weight/volume) of 2-phenylethanol;
# (§14) h. positive control: one tube that contained 5 milliliters of enrichment broth without adding in any of the 2-phenylethanol, sodium benzoate, and sodium propionate, but inoculated the suspension of Escherichia coli or Staphylococcus aureus.
# (§15) i. negative control: one tube that contained 5 milliliters of enrichment broth without adding in any of the 2-phenylethanol, sodium benzoate, and sodium propionate, and not inoculated the suspension of Escherichia coli or Staphylococcus aureus.
# (§16) The requirements for aseptic operation technique were strictly followed to prepare the bacterial suspensions. The colonies of Escherichia coli and Staphylococcus aureus were diluted with physiological saline respectively to prepare bacterial suspension. The turbidities of the Escherichia coli suspension and the Staphylococcus aureus suspension were adjusted to 0.5 MCF (about 10^8 CFU/ml) by a turbidimeter. 1 milliliter of the 0.5 MCF bacterial suspensions were added into 9 milliliters of the enrichment broth respectively, so each bacterial solution was diluted for ten times to contain 10^7 CFU/ml of bacterial organisms.
# (§17) The requirements for aseptic operation technique were strictly followed to take 100 microliters of the prepared bacterial suspensions respectively, and to add the bacterial suspensions into the aforesaid test tubes from a to h as well as positive control tube. No bacterial suspension was added into the negative control tube i.
# (§18) The above tubes were cultured in a biochemical incubator at 37° C. for 24 hours, then turbidity changes of the test tube solutions were observed and recorded.
# (§19) Remark: “+” means the growth of bacteria; “−” means no growth of bacteria.
# [2] = system: nine strains of Candida albicans; assay: Growth of Candida in enrichment broth after 24 hours, clinical strains; conditions: agent alone, 0.025 percent (weight/volume), broth pH 4.5, 37° C. 24 hours
# Source text: as §5, with “broth:” for “broth,”, “4.5,” for “4.8,”
# (2) Experimental groups: the requirements of aseptic operation technique were strictly followed so to prepare the sterile test tubes;
# a. sodium benzoate group: each test tube contained 5 milliliters enrichment broth, and was added in 0.025 percent (weight/volume) of sodium benzoate;
# b. 2-phenylethanol group: each test tube contained 5 milliliters enrichment broth, and was added in 0.050 percent (weight/volume) of 2-phenylethanol;
# c. sodium propionate group: each test tube contained 5 milliliters enrichment broth, and was added in 0.125 percent (weight/volume) of sodium propionate;
# d. “a group of the combinations of sodium benzoate and sodium propionate”: each test tube contained 5 milliliters enrichment broth, and was added in 0.025 percent (weight/volume) of sodium benzoate and 0.125 percent (weight/volume) of sodium propionate;
# e. “a group of the combinations of sodium benzoate and 2-phenylethanol”: each test tube contained 5 milliliters enrichment broth, and was added in 0.025 percent (weight/volume) of sodium benzoate and 0.050 percent (weight/volume) of 2-phenylethanol;
# f. “a group of the combinations of sodium propionate and 2-phenylethanol”: each test tube contained 5 milliliters enrichment broth, and was added in 0.125 percent (weight/volume) of sodium propionate and 0.050 percent (weight/volume) of 2-phenylethanol;
# g. “a group of the combinations of sodium benzoate, sodium propionate and 2-phenylethanol”: each test tube contained 5 milliliters enrichment broth, and was added in 0.025 percent (weight/volume) of sodium benzoate, 0.125 percent (weight/volume) of sodium propionate and 0.050 percent (weight/volume) of 2-phenylethanol;
# h. positive control: the control tube of enrichment broth without adding in 2-phenylethanol, sodium benzoate, and sodium propionate; but inoculated the suspension of Candida albicans;
# i. negative control: the control tube of enrichment broth without adding in 2-phenylethanol, sodium benzoate, and sodium propionate; and without inoculating Candida albicans;
# The requirements for aseptic operation technique were strictly followed to prepare the suspension of organism. The colonies of each strain of Candida albicans organism were diluted with physiological saline respectively. The turbidities of the suspensions of Candida albicans organism were adjusted to 0.5 MCF (about 10^8 CFU/ml) by a turbidimeter. 1 milliliter of the 0.5 MCF organism suspension was added into 9 milliliters of enrichment broth. Each suspension was diluted for ten times to contain 10^7 CFU/ml of organisms.
# the requirements for aseptic technique were strictly followed to take 100 microliters of the prepared organism suspension respectively and to add the suspension into the test tubes from a to h as well as the positive control tube. No organism suspension was added into the negative control tube i.
# The above tubes were cultured in a biochemical incubator at 37° C. for 24 hours. Then the growth of Candida in each tube was observed and recorded.
# Remark: “+” means the growth of organisms; “−” means no growth of organisms.
# [3] = system: Lactococcus lactis and Lactobacillus jensenii; assay: pH of test gel after co-culture of Lactococcus lactis and Lactobacillus jensenii; conditions: cultivated 32 hours
# Source text: as §1, §2, §3
# Lactobacillus jensenii = assay: Gram-stained smear of co-culture gel, Gram-positive rods (G+b); conditions: for Smear G^+b: cultivated 32 hours
# Source text: as §1, §2, §3
# [4] = system: three strains of Escherichia coli isolated from the vaginal secretion of patients with vaginitis; assay: Growth in enrichment broth (turbidity after 24 hours), clinical strains; design: key to growth of Escherichia coli, Bacterial strain 1 / growth of Escherichia coli, Bacterial strain 2 / growth of Escherichia coli, Bacterial strain 3: +: means the growth of bacteria; −: means no growth of bacteria; conditions: for growth of Escherichia coli, Bacterial strain 1 / growth of Escherichia coli, Bacterial strain 2 / growth of Escherichia coli, Bacterial strain 3: enrichment broth, 37° C. for 24 hours, turbidity
# Source text: as §4, §5, §6, §7, §8, §9, §10, §11, §12, §13, §14, §15, §16, §17, §18, §19
# [5] = 0.05 percent (weight/volume) in enrichment broth pH 4.8, 37° C. 24 hours
compound,measurement,setting,value
O=C([O-])c1ccccc1.[Na+] [sodium benzoate],Smear G^+c,Lactococcus lactis; 0.035 % in test gel,G^+c++++
same,Smear G^+c,Lactococcus lactis; 0.05 % in test gel,G^+c++++
same,Smear G^+c,Lactococcus lactis; 0.065 % in test gel,G^+c++
same,inhibition effect on the growth of Lactococcus lactis,Lactococcus lactis; 0.065 to 0.1 percent,stronger inhibition effect
same,Smear G^+c,Lactococcus lactis; 0.1 % in test gel,G^+c+
same,"could inhibit the growth of Staphylococcus aureus (agent alone, words)",[1]; [5],no one of the three antimicrobial agents
same,number of the nine Candida albicans strains that grew,[2],nine
same,pH value,[3]; 0.035 % in test gel,<3.8
same,pH value,[3]; 0.05 % in test gel,<3.8
same,pH value,[3]; 0.065 % in test gel,4.1
same,pH value,[3]; 0.1 % in test gel,4.6
same,Smear G^+b,Lactobacillus jensenii; 0.035 % in test gel,G^+b+
same,Smear G^+b,Lactobacillus jensenii; 0.05 % in test gel,G^+b+
same,Smear G^+b,Lactobacillus jensenii; 0.065 % in test gel,G^+b++
same,inhibition effect on the growth of Lactobacillus,Lactobacillus jensenii; 0.065 to 0.1 percent,weaker inhibition effect
same,Smear G^+b,Lactobacillus jensenii; 0.1 % in test gel,G^+b+++
same,"could inhibit the growth of Escherichia coli (agent alone, words)",[4]; [5],no one of the three antimicrobial agents
O=C([O-])c1ccccc1.[Na+] [a. 0.05% sodium benzoate],"growth of Staphylococcus aureus, Bacterial strain 1",[1],+
same,"growth of Staphylococcus aureus, Bacterial strain 2",[1],+
same,"growth of Staphylococcus aureus, Bacterial strain 3",[1],+
same,"growth of Escherichia coli, Bacterial strain 1",[4],+
same,"growth of Escherichia coli, Bacterial strain 2",[4],+
same,"growth of Escherichia coli, Bacterial strain 3",[4],+
CCC(=O)[O-].[Na+] [c. 0.25% sodium propionate],"growth of Staphylococcus aureus, Bacterial strain 1",[1],+
same,"growth of Staphylococcus aureus, Bacterial strain 2",[1],+
same,"growth of Staphylococcus aureus, Bacterial strain 3",[1],+
same,"growth of Escherichia coli, Bacterial strain 1",[4],+
same,"growth of Escherichia coli, Bacterial strain 2",[4],+
same,"growth of Escherichia coli, Bacterial strain 3",[4],+
